According to patent US20040185499A1, “Method of epitope scanning using fluorescence polarization” (priority 2003, published 2004):
Where no end group is shown, it is not given here. The star is where a group is joined. 6FAM = O=C1OC2(c3ccc(O)cc3Oc3cc(O)ccc32)c2cc(C(=O)*)ccc21

System: antibodies to MPB70 in M. bovis positive bovine serum
Format: binding
Details: pH 7.5

Row | Sequence | increase in fluorescence polarization with M. bovis positive bovine serum sample
1 | VAVAASNNPELTTLT (6FAM-VAVAASNNPELTTLT; listed as Mycobacterium bovis) [Peptide 16] | substantial increase in fluorescence polarization
2 | AASNNPELTTLTAAL (6FAM-AASNNPELTTLTAAL; listed as Mycobacterium bovis) [Peptide 19] | substantial increase in fluorescence polarization
3 | NNPELTTLTAALSGQ (6FAM-NNPELTTLTAALSGQ; listed as Mycobacterium bovis) [Peptide 22] | substantial increase in fluorescence polarization
4 | VAASNNPELTTLTAA (6FAM-VAASNNPELTTLTAA; listed as Mycobacterium bovis) [Peptide 18] | substantial increase in fluorescence polarization
5 | ASNNPELTTLTAALS (6FAM-ASNNPELTTLTAALS; listed as Mycobacterium bovis) [Peptide 20] | substantial increase in fluorescence polarization
6 | AVAASNNPELTTLTA (6FAM-AVAASNNPELTTLTA; listed as Mycobacterium bovis) [Peptide 17] | substantial increase in fluorescence polarization
7 | SNNPELTTLTAALSG (6FAM-SNNPELTTLTAALSG; listed as Mycobacterium bovis) [Peptide 21] | substantial increase in fluorescence polarization
